Columns and labels:
SW480 = experiment: Anticancer activity against human SW480 cells after 48 hrs by MTT assay; assay type: functional, cell-based; details: SW480, 48 h
A549 = experiment: Anticancer activity against human A549 cells after 48 hrs by MTT assay; assay type: functional, cell-based; details: A549, 48 h
SiHa = experiment: Anticancer activity against human SiHa cells after 48 hrs by MTT assay; assay type: functional, cell-based
HepG2 = experiment: Anticancer activity against human HepG2 cells after 48 hrs by MTT assay; assay type: functional, cell-based; details: HepG2, 48 h
HeLa = experiment: Anticancer activity against human HeLa cells after 48 hrs by MTT assay; assay type: functional, cell-based
HEK293 = experiment: Cytotoxicity against human HEK293 cells after 48 hrs by MTT assay; assay type: cell-based; details: HEK293, 48 h

| SMILES | IC50 (SW480) [µM] | IC50 (A549) [µM] | IC50 (SiHa) [µM] | IC50 (HepG2) [µM] | IC50 (HeLa) [µM] | IC50 (HEK293) [µM] |
| --- | --- | --- | --- | --- | --- | --- |
| CCN(CC)[C@H]1CC[C@@]2(C)[C@@H](CC[C@@H]3[C@@H]2CC[C@@]2(C)[C@H]3C[C@H](n3nnc4ccccc43)[C@@H]2OC(C)=O)C1 | > 50 | > 50 | 37.2 | > 50 | > 50 | – |
| CC(=O)O[C@H]1[C@@H](n2cncn2)C[C@H]2[C@@H]3CC[C@H]4C[C@@H](N(C)c5ccccc5)CC[C@]4(C)[C@H]3CC[C@@]21C | > 50 | 12.3 | 37.1 | 21.9 | 19.8 | – |
| CCN(CC)[C@H]1CC[C@@]2(C)[C@@H](CC[C@@H]3[C@@H]2CC[C@@]2(C)[C@H]3C[C@H](n3cnc4ccccc43)[C@@H]2OC(C)=O)C1 | > 50 | > 50 | 29.8 | 22.1 | > 50 | – |
| CC(=O)O[C@H]1[C@@H](n2cncn2)C[C@H]2[C@@H]3CC[C@H]4C[C@@H](N(C)Cc5ccccc5)CC[C@]4(C)[C@H]3CC[C@@]21C | > 50 | > 50 | 22.4 | 10.6 | 18.7 | – |
| CC(=O)O[C@H]1[C@@H](n2cnc3ccccc32)C[C@H]2[C@@H]3CC[C@H]4C[C@@H](N(C)Cc5ccccc5)CC[C@]4(C)[C@H]3CC[C@@]21C | 15.8 | 4.22 | 11.9 | 5.14 | 6.04 | > 80 |
| CC(=O)O[C@H]1[C@@H](n2nnc3ccccc32)C[C@H]2[C@@H]3CC[C@H]4C[C@@H](N5CCCC5)CC[C@]4(C)[C@H]3CC[C@@]21C | > 50 | > 50 | > 50 | > 50 | > 50 | – |
| CC(=O)O[C@H]1[C@@H](n2cncn2)C[C@H]2[C@@H]3CC[C@H]4C[C@@H](N5CCN(C)CC5)CC[C@]4(C)[C@H]3CC[C@@]21C | > 50 | 39.7 | > 50 | 23.5 | > 50 | – |
| CCN(CC)[C@H]1CC[C@@]2(C)[C@@H](CC[C@@H]3[C@@H]2CC[C@@]2(C)[C@H]3C[C@H](n3cncn3)[C@@H]2OC(C)=O)C1 | > 50 | > 50 | > 50 | > 50 | > 50 | – |
| CC(=O)O[C@H]1[C@@H](n2ccnn2)C[C@H]2[C@@H]3CC[C@H]4C[C@@H](N(C)Cc5ccccc5)CC[C@]4(C)[C@H]3CC[C@@]21C | > 50 | 11.4 | 15.2 | 8.43 | > 50 | – |
| COc1cccc2c1C(=O)c1c(O)c3c(c(O)c1C2=O)C[C@@](O)(C(=O)CO)C[C@@H]3O[C@H]1C[C@H](N)[C@H](O)[C@H](C)O1 [DOXORUBICIN] | 0.06 | – | 0.45 | – | 0.23 | – |
| CCN(CC)[C@H]1CC[C@@]2(C)[C@@H](CC[C@@H]3[C@@H]2CC[C@@]2(C)[C@H]3C[C@H](n3ccnn3)[C@@H]2OC(C)=O)C1 | > 50 | > 50 | > 50 | > 50 | > 50 | – |
| CC(=O)O[C@H]1[C@@H](n2ccnn2)C[C@H]2[C@@H]3CC[C@H]4C[C@@H](N5CCCC5)CC[C@]4(C)[C@H]3CC[C@@]21C | > 50 | > 50 | > 50 | > 50 | > 50 | – |
| CC(=O)O[C@H]1[C@@H](n2ccnn2)C[C@H]2[C@@H]3CC[C@H]4C[C@@H](N5CCOCC5)CC[C@]4(C)[C@H]3CC[C@@]21C | 31.8 | 40.3 | 47.8 | > 50 | > 50 | – |
| CC(=O)O[C@H]1[C@@H](n2ccnn2)C[C@H]2[C@@H]3CC[C@H]4C[C@@H](N5CCN(C)CC5)CC[C@]4(C)[C@H]3CC[C@@]21C | > 50 | > 50 | > 50 | > 50 | 38.1 | – |
| CC(=O)O[C@H]1[C@@H](n2cnc3ccccc32)C[C@H]2[C@@H]3CC[C@H]4C[C@@H](N5CCCC5)CC[C@]4(C)[C@H]3CC[C@@]21C | > 50 | 39.6 | 37.1 | > 50 | > 50 | – |
| CC(=O)O[C@H]1[C@@H](n2cnc3ccccc32)C[C@H]2[C@@H]3CC[C@H]4C[C@@H](N5CCN(C)CC5)CC[C@]4(C)[C@H]3CC[C@@]21C | > 50 | 22.4 | 14.9 | 11.7 | > 50 | – |
| CC(=O)O[C@H]1[C@@H](n2cncn2)C[C@H]2[C@@H]3CC[C@H]4C[C@@H](N5CCOCC5)CC[C@]4(C)[C@H]3CC[C@@]21C | > 50 | > 50 | > 50 | 19.5 | 22.3 | – |
| CC(=O)O[C@H]1[C@@H](n2ccnn2)C[C@H]2[C@@H]3CC[C@H]4C[C@@H](N(C)c5ccccc5)CC[C@]4(C)[C@H]3CC[C@@]21C | > 50 | 18.9 | 11.7 | 9.35 | 72.1 | – |
| CC(=O)O[C@H]1[C@@H](n2nnc3ccccc32)C[C@H]2[C@@H]3CC[C@H]4C[C@@H](N(C)c5ccccc5)CC[C@]4(C)[C@H]3CC[C@@]21C | 18.6 | 5.12 | 9.83 | 6.36 | 10.4 | > 80 |
| CC(=O)O[C@H]1[C@@H](n2cnc3ccccc32)C[C@H]2[C@@H]3CC[C@H]4C[C@@H](N(C)c5ccccc5)CC[C@]4(C)[C@H]3CC[C@@]21C | 9.22 | 28.4 | 6.67 | > 50 | 4.51 | > 80 |
| CC(=O)O[C@H]1[C@@H](n2ccnn2)C[C@H]2[C@@H]3CC[C@H]4C[C@@H](N5CCCCC5)CC[C@]4(C)[C@H]3CC[C@@]21C | > 50 | > 50 | > 50 | > 50 | > 50 | – |
| CC(=O)O[C@H]1[C@@H](n2nnc3ccccc32)C[C@H]2[C@@H]3CC[C@H]4C[C@@H](N(C)Cc5ccccc5)CC[C@]4(C)[C@H]3CC[C@@]21C | > 50 | 7.72 | 26.2 | 5.54 | 11.3 | 48.7 |
| CC(=O)O[C@H]1[C@@H](n2cncn2)C[C@H]2[C@@H]3CC[C@H]4C[C@@H](N5CCCC5)CC[C@]4(C)[C@H]3CC[C@@]21C | > 50 | > 50 | > 50 | > 50 | > 50 | – |
| CC(=O)O[C@H]1[C@@H](n2nnc3ccccc32)C[C@H]2[C@@H]3CC[C@H]4C[C@@H](N5CCN(C)CC5)CC[C@]4(C)[C@H]3CC[C@@]21C | 18.9 | 8.99 | 22 | 31.7 | > 50 | – |
| CC(=O)O[C@H]1[C@@H](n2nnc3ccccc32)C[C@H]2[C@@H]3CC[C@H]4C[C@@H](N5CCCCC5)CC[C@]4(C)[C@H]3CC[C@@]21C | > 50 | 22.7 | > 50 | > 50 | 29.6 | – |
| CC(=O)O[C@H]1[C@@H](n2cnc3ccccc32)C[C@H]2[C@@H]3CC[C@H]4C[C@@H](N5CCCCC5)CC[C@]4(C)[C@H]3CC[C@@]21C | > 50 | > 50 | 18.7 | 29.6 | > 50 | – |
| CC(=O)O[C@H]1[C@@H](n2cnc3ccccc32)C[C@H]2[C@@H]3CC[C@H]4C[C@@H](N5CCOCC5)CC[C@]4(C)[C@H]3CC[C@@]21C | > 50 | 16.1 | 12.3 | > 50 | > 50 | – |
| CC(=O)O[C@H]1[C@@H](n2nnc3ccccc32)C[C@H]2[C@@H]3CC[C@H]4C[C@@H](N5CCOCC5)CC[C@]4(C)[C@H]3CC[C@@]21C | > 50 | 12.2 | > 50 | > 50 | 19.8 | – |
| CC(=O)O[C@H]1[C@@H](n2cncn2)C[C@H]2[C@@H]3CC[C@H]4C[C@@H](N5CCCCC5)CC[C@]4(C)[C@H]3CC[C@@]21C | > 50 | > 50 | > 50 | > 50 | > 50 | – |
